Laboratory results reported in US3932633A, “Novel o-triazenobenzamides, in treating aggressive behavior” (Uniroyal Inc., priority 1974, dated 1976).
Where two headings read alike, the source gives them in different places.

Tests used:
[1] = test system: isolation-induced fighting in mice; test: Isolated fighting mouse (IFM) test / isolated mouse aggression; assay type: in vivo; settings: for responders at 30 mg/kg / ED50: Mus musculus, ip; for responders at 30 mg/kg: 30 mg/kg intraperitoneally, at least 40% protected = active
Protocol: *IFM - Isolated fighting mouse test at a dose of 30 mg/kg
intraperitoneally; those compounds which protected at least 40% of the
(§1) Two models of aggression are used in the primary screening for neuroleptics, (1) isolation-induced fighting in mice (IFM), and (2) aggression induced in rats by destruction of the septal area (septal rat). Compounds are first submitted, however, to the neuropharmacological profile, a standard procedure (see, e.g., Samuel Irwin, Science, 136, 123 [1962]) employed in screening a compound to determine its usefulness as a central nervous system active compound. Those agents which cause depression over a wide dose range are then submitted to the first anti-aggression screen, the isolation-induced fighting mouse assay.
(§2) The compound of Example 6 was compared with chlorpromazine and chlordiazepoxide for its anti-aggressive activity. Three models of experimentally-induced aggression in rodents were studied (R. D. Sofia, Life Science, 8: 705, 1969).

[2] = Neurotoxicity (rotating rod / rotorod), mice; settings: mouse, in vivo, ip; I.P., mice; 95% confidence limits; read-out: NTD50
Protocol: (§3) In the neurotoxicity test, the value (NTD50) is defined as the dose necessary to cause 50% of mice or rats trained to walk a rotating wooden rod (5 rpm) to fall at the time of peak effect, and is a measure of drug effects on motor function or central nervous system toxicity. The results set forth in Table III were obtained when the compound of Example 6 was tested against chlorpromazine and chlordiazepoxide.

[3] = Neurotoxicity (rotating rod / rotorod), rats; settings: rat, in vivo, ip; I.P., rats; 95% confidence limits; read-out: NTD50
Protocol: as §3

5 day lethality, mice = settings: mouse, in vivo, Mice, 5 day, 10 per cage, read-out: LD50 (95% Confidence Limits)
Description: (§4) Table VIII gives the results of 5 day lethality studies following single injections of drug. All values presented represent tests conducted when animals were housed 10 per cage. The compound of Example 6 was compared with chlorpromazine and chlordiazepoxide. In these and all the preceding calculations, the method of Litchfield and Wilcoxon (J. Pharmacol. Exptl. Ther., 96: 99, 1949) was used to estimate effective (ED50) or lethal (LD50) dose.

[4] = test system: maximal electroshock seizures in mice; test: Maximal electroshock seizures; assay type: in vivo, mouse
Protocol: Groups of ten mice each were injected i.p. with a vehicle and the compound of Example 6 and placed in individual Plexiglas squares. Thirty minutes after i.p. injection, each mouse was administered an electric shock transcorneally at 50mA intensity, 0.2 seconds duration (Swinyard, et al, J. Pharmacol. Exptl. Ther., 106: 319, 1952). The criterion for activity is protection against tonic extension of the hind limbs. The dose necessary to protect 50% of the mice (MES50) was determined.

[5] = test system: aggression induced in rats by destruction of the septal area; test: Septal rat aggression; assay type: in vivo; settings: for ED50: Rattus norvegicus, ip, read-out: ED50 (95% Confidence Limits), Septal Rat Aggression
Description: as §1, §2

5 day lethality, rats = settings: rat, in vivo, ip; Rats, I.P., 5 day, 10 per cage; read-out: LD50 (95% Confidence Limits)
Description: as §4

[6] = test system: pentylenetetrazol seizures in mice; test: Pentylenetetrazol seizures; assay type: in vivo, mouse; settings: for ED50: Mus musculus, ip, 1 h
Protocol: In this test (modification of the method introduced by Everett and Richard, J. Pharmacol. Exptl. Ther., 81: 402, 1944), groups of ten mice each are pretreated i.p. with vehicle and various doses of the compound of Example 6 and placed in Plexiglas squares. Thirty minutes later, all mice are injected subcutaneously (s.c.) with pentylenetetrazol at 125 mg/kg and observed immediately thereafter for convulsions and death for a period of 1 hour.

[7] = test system: spontaneous locomotor activity in rats; test: Spontaneous locomotor activity; assay type: in vivo; settings: Rattus norvegicus, ip, 0.5 h, read-out: SD50 (dose causing 50% reduction from control activity)
[8] = test system: d-amphetamine aggregation-induced lethality; test: d-Amphetamine aggregation; assay type: in vivo; settings: inactive at: Example 6 200 mg/kg, chlordiazepoxide 50 mg/kg
Protocol: Protection from d-amphetamine aggregation-induced lethality is usually afforded by alpha-adrenergic-blocking agents such as chlorpromazine, phenoxybenzamine, etc. Percent protection was determined and an ED50 value was calculated.

[9] = test system: dihydroxyphenylalanine-induced fighting behavior in mice; test: Dihydroxyphenylalanine (DOPA) fighting test; assay type: in vivo, mouse; settings: 200 mg/kg d1-DOPA; pargyline 80 mg/kg, Example 6 100 mg/kg, chlorpromazine 5 mg/kg, chlordiazepoxide 15 mg/kg
Protocol: It is well known that when monoamine oxidase inhibitors are administered prior to the administration of d1-DOPA, which is a noradrenaline precursor, convulsions or excitation occur. In this study, the MAO inhibitor pargyline (80 mg/kg) was given 1, 2 and 4 hours prior to administering 200 mg/kg of d1-DOPA. […] Thus, in this procedure, none of the agents tested appears to be a MAO inhibitor.

[10] = test system: electroshock-induced fighting in mice; test: Electroshock-induced fighting in mice; assay type: in vivo, mouse; settings: for ED50: Mus musculus, ip, read-out: ED50 (95% Confidence Limits), Electroshock-Induced Fighting in Mice; for NTD50/ED50, Electroshock-Induced Fighting in Mice: i.p. administration
Description: as §2

[11] = test system: isolation-induced fighting in mice; test: Isolated fighting mouse (IFM) test / isolated mouse aggression; assay type: in vivo; settings: po, 30 mg/kg, per os, read-out: IFM % protected
[12] = test system: hissing response elicited by hypothalamic stimulation in cats; settings: Baxter, Life Sciences, 3: 531, 1964, cited from earlier work
[13] = i.p. administration, read-out: ED50 (IFM)

SMILES: CNC(=O)c1ccccc1N=NNc1ccc(C)cc1 [Example 26]
- responders at 30 mg/kg [1]: 100%

SMILES: CN(C)CCCN1c2ccccc2Sc2ccc(Cl)cc21 [Chlorpromazine, chlorpromazine]
- ED50 ([1]; i.p. administration, read-out: ED50 (95% Confidence Limits), Isolated Mouse Aggression): 2.8 mg/kg
- NTD50/ED50, Isolated Mouse Aggression ([1]; i.p. administration): 0.3
- TD50 [2]: 0.7 mg/kg
- TD50 [3]: 5.3 mg/kg
- LD50 at 120 h (5 day lethality, mice; ip, I.P.): 136 mg/kg
- LD50 at 120 h (5 day lethality, mice; po, P.O.): 280 mg/kg
- MES50 ([4]; I.P., mice, inactive at: Example 6 200 mg/kg, chlorpromazine 25 mg/kg): Inactive
- ED50 ([5]; i.p. administration): 10.7 mg/kg
- NTD50/ED50, Septal Rat Aggression ([5]; i.p. administration): 0.5
- LD50 at 120 h (5 day lethality, rats): 138 mg/kg
- MET50 ([6]; I.P., mice, inactive at: Example 6 200 mg/kg, chlorpromazine 100 mg/kg): Inactive
- ED50 [7]: 1.7 mg/kg
- ED50 [8]: 1.2 mg/kg
- excitation, salivation, jumping, and fighting with d1-DOPA [9]: these symptoms were not observed
- ED50 [10]: 5.5 mg/kg
- NTD50/ED50, Electroshock-Induced Fighting in Mice [10]: 0.1

SMILES: CCNC(=O)c1ccccc1N=NNc1nc(C)c(C(=O)NCc2ccccc2)s1 [Example 30]
- responders at 30 mg/kg [11]: 60%

SMILES: COC(=O)c1ccccc1NN=Nc1ccccc1C(N)=O [Example 10]
- responders at 30 mg/kg [1]: 80%
- ED50 [1, 13]: 6 mg/kg

SMILES: Cc1nc(NN=Nc2ccccc2C(N)=O)sc1C(=O)Nc1ccccc1Cl [Example 17]
- responders at 30 mg/kg [1]: 60%

SMILES: COc1ccc(NN=Nc2ccccc2C(N)=O)cc1 [Example 24]
- responders at 30 mg/kg [1]: 100%

SMILES: COc1ccccc1NN=Nc1ccccc1C(N)=O [Example 25]
- responders at 30 mg/kg [1]: 60%

SMILES: CNC(=O)c1ccccc1N=NNc1ccc(C)c(Cl)c1 [Example 27]
- responders at 30 mg/kg [1]: 80%

SMILES: Cc1ccc(NN=Nc2ccccc2C(N)=O)cc1 [Example 8, 2-[3-p-tolyl-1(or 2)-triazeno]-benzamide]
- responders at 30 mg/kg [1]: 100%

SMILES: CCCCNC(=O)c1ccccc1N=NNc1ccc(C)c(Cl)c1 [Example 28]
- responders at 30 mg/kg [1]: 60%

SMILES: NC(=O)c1ccccc1N=NNc1cccc(Cl)c1 [Example 36]
- responders at 30 mg/kg [1]: 40%

SMILES: NC(=O)c1ccccc1N=NNc1nccs1 [Example 2, 2-[3-(2-thiazolyl)-2(or 1)-triazeno]-benzamide]
- responders at 30 mg/kg [1]: 80%
- ED50 [1, 13]: 9.4 mg/kg

SMILES: NC(=O)c1ccccc1N=NNc1ccc2ncccc2c1 [Example 20]
- responders at 30 mg/kg [1]: 40%

SMILES: Cc1nc(NN=Nc2ccccc2C(N)=O)sc1C(=O)N1CCOCC1 [Example 5, 2-[3-(4-methyl-5-morpholinocarbonyl-2-thiazolyl)-2(or 1)-triazeno]-benzamide]
- responders at 30 mg/kg [1]: 100%
- ED50 [1, 13]: 6.7 mg/kg

SMILES: NC(=O)c1ccccc1N=NNc1ccccc1Cl [Example 35]
- responders at 30 mg/kg [1]: 80%
- ED50 [1, 13]: 5.2 mg/kg

SMILES: Cc1ccccc1NN=Nc1ccccc1C(N)=O [Example 13]
- responders at 30 mg/kg [1]: 100%

SMILES: Cc1nc(NN=Nc2ccccc2C(N)=O)sc1C(=O)Nc1ccccc1 [Example 18]
- responders at 30 mg/kg [1]: 60%

SMILES: CCn1c2ccccc2c2cc(NN=Nc3ccccc3C(N)=O)ccc21 [Example 4, 2-[3-(9-ethyl-3-carbazolyl)-2(or 1)-triazeno]-benzamide]
- responders at 30 mg/kg [1]: 100%

SMILES: Cc1ccc(NN=Nc2ccccc2C(N)=O)cc1C [Example 16]
- responders at 30 mg/kg [1]: 60%

SMILES: Cc1cccc(NN=Nc2ccccc2C(N)=O)c1 [Example 14]
- responders at 30 mg/kg [1]: 80%

SMILES: CNC1=Nc2ccc(Cl)cc2C(c2ccccc2)=[N+]([O-])C1 [Chlordiazepoxide, chlordiazepoxide]
- effect on hypothalamic threshold / rage response [12]: increase the threshold of the hypothalamus to electrical stimulation
- effect on hypothalamic threshold / rage response ([12]; listed as chlordiazepoxide): specific in inhibiting this response
- ED50 ([1]; read-out: ED50 (95% Confidence Limits), Isolated Mouse Aggression): 20.5 mg/kg
- NTD50/ED50, Isolated Mouse Aggression ([1]; i.p. administration): 0.7
- TD50 [2]: 13.8 mg/kg
- TD50 [3]: 4.3 mg/kg
- LD50 at 120 h (5 day lethality, mice; ip, I.P.): 400 mg/kg
- LD50 at 120 h (5 day lethality, mice; po, P.O.): 810 mg/kg
- ED50 ([4]; Mus musculus, ip, 0.5 h, read-out: MES50): 14.3 mg/kg
- ED50 [5]: 25.8 mg/kg
- NTD50/ED50, Septal Rat Aggression ([5]; i.p. administration): 0.6
- LD50 at 120 h (5 day lethality, rats): 265 mg/kg
- ED50 ([6]; read-out: MET50, convulsions): 7.1 mg/kg
- ED50 ([6]; read-out: MET50, death): 2.6 mg/kg
- ED50, d-amphetamine aggregation [8]: Inactive
- excitation, salivation, jumping, and fighting with d1-DOPA [9]: these symptoms were not observed
- ED50 [10]: 4.2 mg/kg
- NTD50/ED50, Electroshock-Induced Fighting in Mice [10]: 3.3

SMILES: COc1ccc(NN=Nc2ccccc2C(N)=O)cn1 [Example 22]
- responders at 30 mg/kg [1]: 100%

SMILES: CNC(=O)c1ccccc1N=NNc1nc(C)c(C(=O)NCc2ccccc2)s1 [Example 29]
- responders at 30 mg/kg [1]: 100%

SMILES: NC(=O)c1ccccc1N=NNc1cccc2c1C(=O)c1ccccc1C2=O [Example 23]
- responders at 30 mg/kg [1]: 40%

SMILES: COc1ccc([N+](=O)[O-])cc1NN=Nc1ccccc1C(N)=O [Example 33]
- responders at 30 mg/kg [1]: 100%
- ED50 [1, 13]: 14 mg/kg

SMILES: CCOc1ccc(NN=Nc2ccccc2C(N)=O)cc1 [Example 38]
- responders at 30 mg/kg [1]: 40%

SMILES: NC(=O)c1ccccc1N=NNc1ccccc1C(N)=O [Example 1, 2,2'-diazoaminobenzamide]
- responders at 30 mg/kg [1]: 100%

SMILES: COc1cc([N+](=O)[O-])c(C)cc1NN=Nc1ccccc1C(N)=O [Example 34]
- responders at 30 mg/kg [1]: 100%
- ED50 [1, 13]: 14.5 mg/kg

SMILES: COc1ccc(Cl)cc1NN=Nc1ccccc1C(N)=O [Example 37]
- responders at 30 mg/kg [1]: 60%

SMILES: Cc1nc(NN=Nc2ccccc2C(=O)N(C)C)sc1C(=O)NCc1ccccc1 [Example 31]
- responders at 30 mg/kg [1]: 60%

SMILES: Cc1c(Cl)cccc1NN=Nc1ccccc1C(N)=O [Example 39]
- responders at 30 mg/kg [1]: 40%

SMILES: NC(=O)c1ccccc1N=NNc1cccc([N+](=O)[O-])c1 [Example 15]
- responders at 30 mg/kg [1]: 100%

SMILES: NC(=O)c1ccccc1N=NNc1cccnc1 [Example 19]
- responders at 30 mg/kg [1]: 80%

SMILES: Cc1ccc(NN=Nc2ccccc2C(=O)Nc2ccccc2)cc1 [Example 32]
- responders at 30 mg/kg [1]: 60%

SMILES: NC(=O)c1ccccc1N=NNc1ccc([N+](=O)[O-])cc1 [Example 12]
- responders at 30 mg/kg [1]: 100%

SMILES: C#CCN(C)Cc1ccccc1 [pargyline]
- excitation, salivation, jumping, and fighting with d1-DOPA [9]: excitation, salivation, jumping, and fighting

SMILES: NC(=O)c1ccccc1N=NNc1ccc(Cl)cc1 [Example 11]
- responders at 30 mg/kg [1]: 40%

SMILES: Cc1cc(C)c(NC(=O)c2sc(NN=Nc3ccccc3C(N)=O)nc2C)c(C)c1 [Example 9]
- responders at 30 mg/kg [1]: 60%

SMILES: NC(=O)c1ccccc1N=NNc1cccnc1Cl [Example 21]
- responders at 30 mg/kg [1]: 40%
